Experimental data as given in US20250353825A1, “CANNABICYCLOL DERIVATIVES AND PREPARATION METHODS THEREOF” (priority 2023, published 2025).
In brackets after ≈: the same amount, converted by molar mass. Read-outs that look alike come from different tables or passages of the source.

Key:
Format in all cases: cell-based
GSC-3 (3#-GSC) = test: MTS cell viability assay, glioblastoma stem cells GSC-3 (3#-GSC); settings: for IC50: GSC-3, Table 8, cancer stem cells, preferred compounds, read-out: IC50 3#-GSC; for selective anti-glioma stem cell viability: judged in words from preliminary viability screening against 3#-GSC, 293T and U251
Method: (§1) Primary viability screening: (1) the synthesized compounds 3a to 13d were respectively dissolved in DMSO to prepare a 40 μg/mL cannabicyclol and cannabicyclol derivative solutions.
(§2) (2) A control group: a 200 μL DMSO solvent.
(§3) (3) The solutions of compounds 3a to 13d were diluted in a twofold gradient to obtain cannabicyclol and cannabicyclol derivative solutions at concentrations of 40 μg/mL, 20 μg/mL, 10 μg/mL, 5 μg/mL, 2.5 μg/mL, 1.25 μg/mL, and 0.625 μg/mL, and 0.3125 μg/mL, respectively.
(§4) (4) Three glioblastoma stem cells (GSC-3, GSC-12, and GSC-18), three pancreatic cancer cell-derived stem cells (PANC-1-CSC, BXPC-3-CSC, and ASPC1-CSC), three liver cancer cell-derived stem cells (HepG2-CSC, MHCC97H-CSC, and SMMC7721-CSC), HEK-293T cells, 16 tumor cells (U251, U87, T98G, PANC1, BXPC3, ASPC1, HepG2, MHCC97H, SMMC7721, PC3, SKOV3, MDA-MB231, A549, HCT116, HEC-1B, MKN28), and differentiated glioblastoma stem cells (GSC-3diff and GSC-12diff) derived from GSC-3 and GSC-12 (all of the cells were provided by the Laboratory of Tumor Animal Model Preparation and Application Research, West China Hospital, Sichuan University) were inoculated into a 96-well plate at a concentration of 2×10^4 cells/well, and 100 μL of culture medium was then added to each well;
(§5) (5) 2) HEK-293T, GSC-3diff, GSC-12diff, and the 16 tumor cells were added with DMEM, 10% FBS, and 1% double antibody culture medium. Cancer stem cells (CSCs) were added with serum-free stem cell medium consisting of DMEM/F12, EGF (20 ng/mL), bFGF (20 ng/mL), B27 (1×), and 1% double antibody culture medium.
(§6) (6) Inoculated cells were put into a cell culture incubator for 24 hours, and after the cells were well adhered to the wall, the culture medium in the 96-well plate was discarded.
(§7) (7) 200 μL cannabicyclol and cannabicyclol derivatives solutions at different concentrations were added to the cultured cells.
(§8) (8) The experiment was set up with 3 replicates.
(§9) (9) The 96-well plate was placed in a cell culture incubator, and incubation was continued at 37° C. and 5% CO2 for 72 hours. Then, 100 μL of cannabicyclol and cannabicyclol derivative solution per well was discarded (100 μL of DMSO solvent was discarded for the control group), and 20 μL of LMTS (CellTiter AQueous Non-Radioactive Cell Proliferation Assay, #G3581) was mixed and continued to be placed in the cell incubator for 2 hours of incubation.
(§10) (10) The absorbance value at 490 nm was measured on an enzyme labeling apparatus, and the IC50 value was calculated.

U251 = test: MTS cell viability assay, U251; settings: for IC50: Homo sapiens, U-251, Table 8, tumor cells, preferred compounds, read-out: IC50 U251
Method: as §1, §2, §3, §4, §5, §6, §7, §8, §9, §10

[1] = MTS cell viability assay, HEK-293T (293T) normal cells; settings: human
Method: as §1, §2, §3, §4, §5, §6, §7, §8, §9, §10

HEK-293T = test: as above; settings: Homo sapiens, HEK-293T; Table 8, normal cells, preferred compounds; read-out: IC50 293T
Method: as §1, §2, §3, §4, §5, §6, §7, §8, §9, §10

[2] = primary viability screening, 72 hours, MTS, test concentration not stated
[3] = HEK-293T (293T) normal cells, primary viability screening, 72 hours, MTS, test concentration not stated, read-out: Cell viability in 293T (%)

SMILES | IC50 (GSC-3 (3#-GSC)) | Cell viability in 3#-GSC (%) (GSC-3 (3#-GSC); [2]) | IC50 (U251) | Cell viability in U251 (%) (U251; [2]) | viability at 72 h [1, 3] | IC50 (HEK-293T) | Cell viability in 3#-GSC (%) (GSC-3 (3#-GSC); 72 h) | selective anti-glioma stem cell viability (GSC-3 (3#-GSC)) | Cell viability in U251 (%) (U251; human, 72 h) | viability at 72 h [1]
CCCCCc1cc(OC(=O)CCN2CCOCC2)c2c(c1)OC1(C)CCC3C1C2C3(C)C (stereo not drawn) [Compound 9l] | 2.9 µg/mL (≈ 6.37 µM) | 32% | 24.7 µg/mL (≈ 54.3 µM) | 90% | 93% | > 40 µg/mL | – | – | – | –
CC12CCC3C1C(c1c(O)cc(-c4ccsc4)cc1O2)C3(C)C (stereo not drawn) [Compound 3t] | 3 µg/mL (≈ 9.17 µM) | – | 14 µg/mL (≈ 42.8 µM) | – | – | 16.4 µg/mL (≈ 50.2 µM) | 50% | weak selective anti-glioma stem cell viability | 98% | ≥ 100%
CCCCCc1cc(OC(=O)CC)c2c(c1)OC1(C)CCC3C1C2C3(C)C (stereo not drawn) [Compound 9c] | 9.32 µg/mL (≈ 25.2 µM) | 28% | 24.7 µg/mL (≈ 66.7 µM) | ≥100% | ≥ 100% | > 40 µg/mL | – | both the viability and selectivity were maintained | – | –
CCCCCc1cc(OC(=O)CN(C)C)c2c(c1)OC1(C)CCC3C1C2C3(C)C (stereo not drawn) [Compound 9m] | 5.44 µg/mL (≈ 13.6 µM) | 42% | > 40 µg/mL | ≥100% | ≥ 100% | 22.9 µg/mL (≈ 57.2 µM) | – | – | – | –
CCCCCc1cc2c(c(-c3ccccc3)c1)C1C3C(CCC3(C)O2)C1(C)C (stereo not drawn) [Compound 13b] | 4.73 µg/mL (≈ 12.6 µM) | – | > 40 µg/mL | – | – | > 40 µg/mL | 50% | both the viability and selectivity were significantly reduced | ≥100% | 75%
CCCCCc1cc(OC(=O)C(C)CC)c2c(c1)OC1(C)CCC3C1C2C3(C)C (stereo not drawn) [Compound 9a] | 4.32 µg/mL (≈ 10.8 µM) | 52% | > 40 µg/mL | ≥100% | ≥ 100% | > 40 µg/mL | – | – | – | –
CCCCCc1cc(OC(=O)CCN(C)C)c2c(c1)OC1(C)CCC3C1C2C3(C)C (stereo not drawn) [Compound 9n] | 7.79 µg/mL (≈ 18.8 µM) | 32% | 33.4 µg/mL (≈ 80.9 µM) | 89% | ≥ 100% | 35.2 µg/mL (≈ 85 µM) | – | – | – | –
CCCCCc1cc(OC(=O)CN2CCOCC2)c2c(c1)OC1(C)CCC3C1C2C3(C)C (stereo not drawn) [Compound 9k] | 5.37 µg/mL (≈ 12.2 µM) | 43% | > 40 µg/mL | ≥100% | ≥ 100% | > 40 µg/mL | – | – | – | –
